By MIC is commonly meant the least concentration at which growth counts as inhibited. The low end stands for greater potency, the high end for weaker potency.

A short description of data set [1]: Drug level in healthy human serum at 2000 mg/20 mins infusion. Format: ADME, cell-free. As to conditions: iv, read-out: Drug uptake.
A further data set has as its system Pseudomonas aeruginosa. Nature of the data set: Antimicrobial activity against Pseudomonas aeruginosa isolated from cystic fibrosis patient sputum culture.
Data set [2] is described as follows: Drug level in human cystic fibrosis patient serum at 2000 mg/20 mins infusion. The data set is classed as ADME, cell-free. To be noted: iv, read-out: Drug uptake.

Turning to `C[C@H]1[C@H](NC(=O)/C(=N\OC(C)(C)C(=O)O)c2csc(N)n2)C(=O)N1S(=O)(=O)O` [AZTREONAM], the concentration at 20 min in data set [1] was determined as 242 µg/mL; in data set [2] it was 228 µg/mL. Besides, the MIC in the data set with Pseudomonas aeruginosa is at most 8 ng/mL.
